This assay deals with BDF1 mice, P388 leukemia ip, median survival T/C. The experiment in a line: NCI In Vivo Anticancer Drug Screen. Data for tumor model P388 Leukemia (intraperitoneal) in B6D2F1 (BDF1) mice. Conditions: endpoint: median survival time, higher = longer survival. In short, it runs like this: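 Survival ratio, drug arm over vehicle arm, in mice with a transplanted tumour.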
[1] abbreviates: dose: 100.0 mg/kg/injection, schedule: Q01DX009 (ip), vehicle: saline with Tween-80.
The mark [2] stands for this setting: dose: 200.0 mg/kg/injection, schedule: Q01DX009 (ip), vehicle: saline with Tween-80.
Where [3] appears, read: dose: 400.0 mg/kg/injection, schedule: Q01DX009 (ip), vehicle: saline with Tween-80.
[4] abbreviates: dose: 25.0 mg/kg/injection, schedule: Q01DX009 (ip), vehicle: saline with Tween-80.
The mark [5] stands for this setting: dose: 100.0 mg/kg/injection, schedule: Q04DX003 (ip), vehicle: saline with Tween-80.
Setting [6] is: dose: 200.0 mg/kg/injection, schedule: Q04DX003 (ip), vehicle: saline with Tween-80.
[7] abbreviates: dose: 400.0 mg/kg/injection, schedule: Q04DX003 (ip), vehicle: saline with Tween-80.

“And” between values parts separate entries of the source, which are not always exact repeats. Equal values may be shown once. Inconclusive results and toxic doses are left out.

On to `CCC(C)C1NC(=O)C(NC(=O)c2c3nc4c(C(=O)NC5C(=O)NC(C(C)CC)C(=O)N6CCCC6C(=O)N(C)CC(=O)N(C)C(C(C)C)C(=O)OC5C)cc([N+](=O)[O-])c(C)c4oc-3c(C)c(=O)c2N)C(C)OC(=O)C(C(C)C)N(C)C(=O)CN(C)C(=O)C2CCCN2C1=O` (centres undefined), for which the T/C is, setting by setting: (dose: 0.15 mg/kg/injection, schedule: Q04DX003 (ip), vehicle: saline + alcohol) 197 % of control; (dose: 0.3 mg/kg/injection, schedule: Q04DX003 (ip), vehicle: saline + alcohol) 157 % of control and 216 % of control; (dose: 0.6 mg/kg/injection, schedule: Q04DX003 (ip), vehicle: saline + alcohol) 229 % of control and 221 % of control; (dose: 1.2 mg/kg/injection, schedule: Q04DX003 (ip), vehicle: saline + alcohol) 270 % of control and 177 % of control; (dose: 2.4 mg/kg/injection, schedule: Q04DX003 (ip), vehicle: saline + alcohol) 116 % of control; (dose: 50.0 micrograms/kg/injection, schedule: Q01DX009 (ip), vehicle: saline + alcohol) 173 % of control. For the same compound, the T/C runs as follows: (dose: 100.0 micrograms/kg/injection, schedule: Q01DX009 (ip), vehicle: saline + alcohol) 197 % of control; (dose: 200.0 micrograms/kg/injection, schedule: Q01DX009 (ip), vehicle: saline + alcohol) 312 % of control; (dose: 400.0 micrograms/kg/injection, schedule: Q01DX009 (ip), vehicle: saline + alcohol) 118 % of control.

With `CCCc1cc(CCC)nc(NNc2nc(CCC)cc(CCC)n2)n1`, the T/C runs as follows: under setting [1], 86 % of control; under setting [2], 100 % of control; under setting [3], 100 % of control.

As to `CC1(C)C/C(=C\c2ccc(Br)cc2)C(=O)c2ccccc21`, the T/C is 100 % of control (dose: 100.0 mg/kg/injection, schedule: Q01DX009 (ip), vehicle: Klucel (hydroxypropylcellulose) (HPC)); 105 % of control (dose: 200.0 mg/kg/injection, schedule: Q01DX009 (ip), vehicle: Klucel (hydroxypropylcellulose) (HPC)); 95 % of control (dose: 400.0 mg/kg/injection, schedule: Q01DX009 (ip), vehicle: Klucel (hydroxypropylcellulose) (HPC)).

On to `CC(C)N(C)Cc1ccccc1Sc1ccccc1CN(C)C(C)C`, for which the T/C reads like this: (dose: 100.0 mg/kg/injection, schedule: Q01DX001 (ip), vehicle: other) 108 % of control; (dose: 200.0 mg/kg/injection, schedule: Q01DX001 (ip), vehicle: other) 107 % of control; (dose: 400.0 mg/kg/injection, schedule: Q01DX001 (ip), vehicle: other) 97 % of control.

On to `C[CH2][Pb]([CH2]C)([CH2]C)[O][As](=O)(O)c1ccc(N)cc1`, for which the T/C runs as follows: (dose: 1.5 mg/kg/injection, schedule: Q01DX009 (ip), vehicle: saline) 107 % of control; (dose: 2.0 mg/kg/injection, schedule: Q01DX009 (ip), vehicle: saline) 111 % of control; (dose: 3.0 mg/kg/injection, schedule: Q01DX009 (ip), vehicle: saline) 103 % of control; (dose: 4.5 mg/kg/injection, schedule: Q01DX009 (ip), vehicle: saline) 95 % of control.

With `Cn1nnn2c(-c3ccccc3)nnc12`, the T/C by setting is: under setting [4], 115 % of control; (dose: 50.0 mg/kg/injection, schedule: Q01DX009 (ip), vehicle: saline with Tween-80) 110 % of control; under setting [1], 95 % of control.

With `O=C(O)c1ccc(C(=O)O)c2c(C(=O)O)ccc(C(=O)O)c12`, the T/C is, setting by setting: (dose: 50.0 mg/kg/injection, schedule: Q04DX003 (ip), vehicle: saline with Tween-80) 95 % of control; under setting [5], 95 % of control; under setting [6], 90 % of control.

For `Cc1cc(=O)cc(C)n1C`, the T/C by setting is: under setting [1], 104 % of control; under setting [2], 100 % of control; under setting [3], 100 % of control.

For the compound `Oc1ccccc1O.[O-]c1ccccc1[O-].[O-]c1ccccc1[O-].[O]=[V+2]`, the T/C was 89 % of control (dose: 9.37 mg/kg/injection, schedule: Q01DX009 (ip), vehicle: saline); 100 % of control (dose: 9.37 mg/kg/injection, schedule: Q04DX003 (ip), vehicle: saline); 94 % of control (dose: 18.75 mg/kg/injection, schedule: Q01DX009 (ip), vehicle: saline); 109 % of control (dose: 18.75 mg/kg/injection, schedule: Q04DX003 (ip), vehicle: saline); 104 % of control (dose: 24.0 mg/kg/injection, schedule: Q04DX003 (ip), vehicle: saline); 100 % of control (dose: 24.7 mg/kg/injection, schedule: Q04DX003 (ip), vehicle: saline). In addition, the T/C reads like this: (dose: 37.0 mg/kg/injection, schedule: Q04DX003 (ip), vehicle: saline) 105 % of control; (dose: 37.5 mg/kg/injection, schedule: Q01DX009 (ip), vehicle: saline) 89 % of control; (dose: 37.5 mg/kg/injection, schedule: Q04DX003 (ip), vehicle: saline) 100 % of control; (dose: 55.0 mg/kg/injection, schedule: Q04DX003 (ip), vehicle: saline) 100 % of control; (dose: 55.5 mg/kg/injection, schedule: Q04DX003 (ip), vehicle: saline) 90 % of control.

For the compound `CC(O)C#CC(C)O` (centres undefined), the T/C is, setting by setting: (dose: 12.5 mg/kg/injection, schedule: Q01DX009 (ip), vehicle: Klucel (hydroxypropylcellulose) (HPC)) 91 % of control; (dose: 12.5 mg/kg/injection, schedule: Q04DX003 (ip), vehicle: Klucel (hydroxypropylcellulose) (HPC)) 118 % of control; (dose: 25.0 mg/kg/injection, schedule: Q01DX009 (ip), vehicle: Klucel (hydroxypropylcellulose) (HPC)) 91 % of control; (dose: 25.0 mg/kg/injection, schedule: Q04DX003 (ip), vehicle: Klucel (hydroxypropylcellulose) (HPC)) 104 % of control; (dose: 50.0 mg/kg/injection, schedule: Q01DX009 (ip), vehicle: Klucel (hydroxypropylcellulose) (HPC)) 95 % of control; (dose: 50.0 mg/kg/injection, schedule: Q04DX003 (ip), vehicle: Klucel (hydroxypropylcellulose) (HPC)) 109 % of control.

As for `Nc1ncnc2[nH]c(=O)[nH]c12`, the T/C (dose: 12.5 mg/kg/injection, schedule: Q01DX009 (ip), vehicle: saline with Tween-80) was 104 % of control; the T/C under setting [4] was 109 % of control; the T/C under setting [6] was 104 % of control; the T/C under setting [7] is 114 % of control.

Consider `COC(=O)C(Br)C(Br)c1ccccc1` (centres undefined), for which the T/C is, setting by setting: under setting [1], 113 % of control; under setting [3], 118 % of control.

As for `CN(C)[C@@H]1C(=O)C(C(=O)NCNC(CO)(CO)CO)=C(O)[C@@]2(O)C(=O)C3=C(O)c4c(O)cccc4[C@@](C)(O)[C@H]3C[C@@H]12`, the T/C was 100 % of control (dose: 25.0 mg/kg/injection, schedule: Q04DX003 (ip), vehicle: saline); 95 % of control (dose: 50.0 mg/kg/injection, schedule: Q04DX003 (ip), vehicle: saline); 90 % of control (dose: 100.0 mg/kg/injection, schedule: Q04DX003 (ip), vehicle: saline); 104 % of control (dose: 200.0 mg/kg/injection, schedule: Q04DX003 (ip), vehicle: saline).

Regarding `CC1OC2CC(=O)OC2C2=C1C(=O)c1c(O)c3c(c(O)c1C2=O)C1CC(O)C3(O)C(C)O1` (centres undefined), the T/C was 115 % of control (dose: 2.5 mg/kg/injection, schedule: Q01DX010 (ip), vehicle: saline); 115 % of control (dose: 5.0 mg/kg/injection, schedule: Q01DX010 (ip), vehicle: saline); 115 % of control (dose: 10.0 mg/kg/injection, schedule: Q01DX010 (ip), vehicle: saline).

For `CNS(=O)(=O)c1ccc2c(c1)[nH]c(=S)n2C`, the T/C is 95 % of control under setting [5], 109 % of control under setting [6] and 100 % of control under setting [7].

Values taken from PubChem BioAssay AID328 (DTP/NCI, 2004).
